Data from the Kinase Knowledgebase extract (Sharma et al. 2016).

Molecular target: PIK3CA (human) (UniProt P42336)
Assay: Assessment of PIK3CA Kinase Activity

PIK3CA (human), sequence (P42336 whole entry, looked up): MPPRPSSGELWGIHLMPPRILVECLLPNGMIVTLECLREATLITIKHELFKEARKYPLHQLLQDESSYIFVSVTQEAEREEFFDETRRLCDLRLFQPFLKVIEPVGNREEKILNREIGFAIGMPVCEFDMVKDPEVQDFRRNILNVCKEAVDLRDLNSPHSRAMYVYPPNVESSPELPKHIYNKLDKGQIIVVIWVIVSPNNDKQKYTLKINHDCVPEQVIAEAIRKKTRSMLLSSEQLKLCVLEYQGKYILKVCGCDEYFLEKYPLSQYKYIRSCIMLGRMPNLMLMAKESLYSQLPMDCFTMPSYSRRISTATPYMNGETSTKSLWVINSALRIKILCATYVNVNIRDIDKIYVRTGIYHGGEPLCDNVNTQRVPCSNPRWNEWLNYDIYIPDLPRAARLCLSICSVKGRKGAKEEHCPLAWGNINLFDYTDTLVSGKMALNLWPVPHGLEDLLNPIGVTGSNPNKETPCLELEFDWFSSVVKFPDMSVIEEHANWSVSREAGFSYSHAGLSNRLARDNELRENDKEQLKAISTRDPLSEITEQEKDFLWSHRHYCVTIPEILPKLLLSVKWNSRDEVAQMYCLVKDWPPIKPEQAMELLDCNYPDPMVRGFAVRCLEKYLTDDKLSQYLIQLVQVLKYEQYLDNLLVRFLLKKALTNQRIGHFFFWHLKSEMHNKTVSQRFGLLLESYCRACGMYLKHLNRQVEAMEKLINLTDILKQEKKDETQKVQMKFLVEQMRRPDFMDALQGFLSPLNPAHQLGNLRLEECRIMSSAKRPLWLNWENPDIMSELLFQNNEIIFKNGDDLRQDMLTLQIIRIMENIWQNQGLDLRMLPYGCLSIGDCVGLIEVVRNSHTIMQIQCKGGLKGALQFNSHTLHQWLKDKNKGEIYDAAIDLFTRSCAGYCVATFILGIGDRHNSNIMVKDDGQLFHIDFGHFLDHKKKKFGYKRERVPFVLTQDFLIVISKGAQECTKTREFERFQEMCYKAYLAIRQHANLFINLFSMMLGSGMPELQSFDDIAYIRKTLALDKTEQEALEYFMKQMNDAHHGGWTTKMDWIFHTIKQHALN

Compound | IC50
Cc1nc2sc(NC3CCN(S(C)(=O)=O)CC3)nn2c1-c1cnc(N)c(C(F)(F)F)c1 | 1 to 50 nM
CS(=O)(=O)NC1CCCN(c2nn3c(-c4cnc(N)c(C(F)(F)F)c4)cnc3s2)C1 (stereo not drawn) | 50 to 1000 nM
NCC(=O)O[C@H]1CC[C@H](Nc2nn3c(-c4cnc(N)c(C(F)(F)F)c4)cnc3s2)CC1 | 1 to 50 nM
COc1cncc(-c2cnc3sc(NCC4CCN(S(C)(=O)=O)CC4)nn23)c1 | 50 to 1000 nM
Nc1ncc(-c2cnc3sc(NC4CC5(CCNCC5)C4)nn23)cc1C(F)(F)F | 17 nM
CC(C)(C)OC(=O)N[C@H]1CC[C@H](Nc2nn3c(-c4cnc(N)c(C(F)(F)F)c4)cnc3s2)CC1 | 12 nM
Nc1ncc(-c2cnc3sc(N4CCC(N)C4)nn23)cc1C(F)(F)F (stereo not drawn) | 1000 nM
CC(C)(C)OC(=O)NCCNc1nn2c(-c3cnc(N)c(C(F)(F)F)c3)cnc2s1 | 50 to 1000 nM
CN(c1nn2c(-c3cnc(N)c(C(F)(F)F)c3)cnc2s1)[C@H]1CC[C@@](C)(O)CC1 | 50 to 1000 nM
CC(C)(C)OC(=O)N1CCC(CNc2nn3c(-c4cnc(N)c(C(F)(F)F)c4)cnc3s2)CC1 | 50 to 1000 nM
CC(C)(C)OC(=O)N1CCC(Nc2nn3c(-c4cnc(N)c(C(F)(F)F)c4)cnc3s2)CC1 | 50 to 1000 nM
CC(C)(C)OC(=O)NC1CCCN(c2nn3c(-c4cnc(N)c(C(F)(F)F)c4)cnc3s2)C1 (stereo not drawn) | 230 nM
C[C@]1(O)CC[C@H](Nc2nn3c(-c4cnc(N)c(C(F)(F)F)c4)cnc3s2)CC1 | 1 to 50 nM
Nc1ncc(-c2cnc3sc(NCCN4CCNCC4)nn23)cc1C(F)(F)F | 50 to 1000 nM
CC(=O)N[C@H]1CC[C@H](Nc2nn3c(-c4cnc(N)c(C(F)(F)F)c4)cnc3s2)CC1 | 50 to 1000 nM
Nc1ncc(-c2cnc3sc(N4C[C@H]5CNC[C@H]5C4)nn23)cc1C(F)(F)F | 50 to 1000 nM
CCNC(=O)NC1CCCN(c2nn3c(-c4cnc(N)c(C(F)(F)F)c4)cnc3s2)C1 (stereo not drawn) | 483 nM
NCC1CCN(c2nn3c(-c4cnc(N)c(C(F)(F)F)c4)cnc3s2)CC1 | 50 to 1000 nM
